{"source": "patent US10000787B2", "about": "“Methods for diagnosing bacterial infections” (STC.UNM, priority 2012, dated 2018)", "target": "T1, pHPA decarboxylase (Clostridioides difficile, UniProt Q84F16)", "T1 construct": "Isolated cell free extract of C. difficile; endogenous in cells; host or cells: C. difficile cell-free extract", "T1 sequence (Q84F15 whole entry)": "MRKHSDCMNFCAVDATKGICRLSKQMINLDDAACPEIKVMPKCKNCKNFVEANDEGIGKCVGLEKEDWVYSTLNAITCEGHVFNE", "T1 sequence (Q84F16 whole entry)": "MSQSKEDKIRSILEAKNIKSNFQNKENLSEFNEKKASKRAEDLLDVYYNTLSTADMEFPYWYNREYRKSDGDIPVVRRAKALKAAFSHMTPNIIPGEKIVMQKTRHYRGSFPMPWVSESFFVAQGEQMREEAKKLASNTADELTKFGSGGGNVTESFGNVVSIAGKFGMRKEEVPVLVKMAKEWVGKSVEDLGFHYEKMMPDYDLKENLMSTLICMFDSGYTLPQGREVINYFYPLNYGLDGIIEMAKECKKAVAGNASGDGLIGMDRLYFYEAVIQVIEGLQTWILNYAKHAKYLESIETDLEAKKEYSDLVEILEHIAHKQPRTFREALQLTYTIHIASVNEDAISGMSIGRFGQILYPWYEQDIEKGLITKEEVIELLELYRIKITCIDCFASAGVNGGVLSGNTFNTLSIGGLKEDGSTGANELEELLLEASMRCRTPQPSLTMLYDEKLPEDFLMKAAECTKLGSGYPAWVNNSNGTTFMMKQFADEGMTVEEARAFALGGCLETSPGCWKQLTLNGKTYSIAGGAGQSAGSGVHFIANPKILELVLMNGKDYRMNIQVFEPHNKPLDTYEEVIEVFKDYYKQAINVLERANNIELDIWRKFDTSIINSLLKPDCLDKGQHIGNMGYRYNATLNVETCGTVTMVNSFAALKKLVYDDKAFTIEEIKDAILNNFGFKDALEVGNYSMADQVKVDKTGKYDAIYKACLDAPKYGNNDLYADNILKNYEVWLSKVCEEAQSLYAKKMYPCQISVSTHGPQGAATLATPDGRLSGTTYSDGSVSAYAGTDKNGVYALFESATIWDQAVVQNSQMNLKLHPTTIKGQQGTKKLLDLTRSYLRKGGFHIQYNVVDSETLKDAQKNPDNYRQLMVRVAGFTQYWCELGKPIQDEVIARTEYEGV", "assay": "estimated ^13CO2 production from labeled substrate by pHPA decarboxylase in a C. difficile infection", "assay_type": "in vivo", "conditions": "infection in which 10 mg of bacterial protein is present; worked out from 12 mU per mg of protein pHPA decarboxylase in isolated cell free extract of C. difficile", "method": "The compositions of the invention can also be administered intravenously. Isolated cell free extract of C. difficile contains 12 mU per mg of protein of the activating enzyme pHPA decarboxylase. This correlates to the production of 2.7 mL of ^13CO2 per minute in an infection in which 10 mg of bacterial protein is present when a patient is treated with a compound of the invention, for example, ^13C-hydroxyphenylacetate. Oftentimes, a patient is infected with much more than 10 mg of bacterial protein with a C. difficile infection.\nAssuming 15 liters of air is respired per minute, and with 4% exhaled CO2, a patient will exhale about 600 ml of CO2 per minute, of which approximately 6.6 mLs will be ^13CO2. […] Thus, efficient delivery of isotopically-labeled compound is important. Preferably, an intravenous dosage form is administered to the patient, leading to rapid increases in intestinal levels, and allowing breath testing from 10 to 120 minutes after dosage. Such dosage forms are sterile and particle-free. Preparation methods for such dosage forms are known in the art.", "data": [{"substance": "^13C-hydroxyphenylacetate", "values": [{"measurement": "production of ^13CO2", "result": 2.7, "unit": "mL per minute"}]}]}
